# Experimental data taken from patent publication US10710951B2, “Pharmaceutical composition containing verbenone derivative for treating or preventing neurodegenerative disease” (KOREA UNIVERSITY RESEARCH AND BUSINESS FOUNDATION, priority 2012, dated 2020).
# Experiments:
# [1] = tested on: cortical neurons; experiment: Intracellular levels (DCF fluorescence) of reactive oxygen species after OGD/reoxygenation; format: cell-based, SD rats; settings: FIG. 3
# Procedure: In order to examine the direct radical scavenging activities of the samples, at 1 hour after reoxygenation, the cells were stained with the fluorescent probe H2DCF-DA (2,7-dihydroichlorofluorescein diacetate) that is widely used to measure intracellular oxidative stress. After 2 hours, the cells were washed in EBSS buffer (containing 25 mM glucose, 1.8 mM CaCal2, 1.2 mM MgSO4 and 2.5 mM probenecid (pH7.4)), and the fluorescence of DCF was measured with a fluorescence microplate reader (SpectraMax GeminiEM; Ex=485 nm, Em=530 nm) or a fluorescence microscope (DM IL HC Fluo, Leica, Wetzlar, Germany) equipped with a digital camera (DFC420C, Leica, Wetzlar Germany). The fluorescence intensity was compensated with autofluorescence (i.e., the fluorescence of cells not loaded with H2DCF-DA).
# [2] = Oxygen radical absorbance capacity (ORAC) assay; set-up: ORAC assay TE25 (trolox equivalents): dose or concentration left out as unconfirmed
# Procedure: An ORAC assay was performed as disclosed in the literature (Huang, D. et al., J. Agric. Food Chem., 53, 1841-56, 2005).
# AAPH (60 mM) and fluorescein (50 nM) were prepared in buffer (75 mM phosphate buffer, pH7.4) without a sample or a sample or a standard (Trolox). Each of the samples and the standard was suspended in a solution of 7% RMCD (randomly methylated beta-cyclodextrin) in 50% acetone. RMCD was used to increase the solubility of oil-soluble samples. Each sample was sufficiently mixed with fluorescein solution (66 nM, 190 μl) by shaking for 5 seconds. After incubation at 37° C. for 10 minutes, AAPH (500 mM, 30 μl) was quickly added to each sample, and a decrease in the fluorescence was measured using a fluorescence microplate reader (Ex=485 nm, Em=530 nm; SpectraMax GeminiEM, Molecular Devices, Sunnyvale, Calif.) at 37° C. at 5-min intervals for 9 hours. To quantify the activity of scavenging peroxyl radicals, AUC (area-under-the-curve) was calculated according to the following equation 2, and net AUC was calculated according to the following equation 3, and the TE (trolox equivalents) of each sample was calculated according to the following equation 4 based on a standard curve of net AUC plotted according to an increase in trolox concentration. AUC=(0.5+f1/f0+f2/f0+f3/f0+ . . . +fn−2/f0+fn−1/f0+fn/f0)×5, Equation 2
# wherein f0 is the first fluorescence at 0 min and time I. Net AUC=AUCsample−AUCblank. Equation 3 TE(trolox equivalents) of each sample=[netAUCsample […]]/[net AUCtrolox […]]. Equation 4
# The antioxidant activities of the verbenone derivatives of the present invention were measured by the following two different chemical reactions: (1) a single electron transfer-based assay that is a […] [DPPH] assay that measures a decrease in DPPH acting as a free radical generator and a termination probe; and (2) a hydrogen atom transfer assay that is an oxygen radical absorbance capacity [[…]] assay that measures the competitive reaction kinetics of a peroxyl radical generator (AAPH; 2,2′-azobis-(2-methylpropionamide)-dihydrochloride) and each sample acting as an antioxidant for oxidizable fluorescent probe (fluorescein).
# [3] = tested on: focal cerebral ischemia (MCAO) rats; experiment: Focal cerebral ischemia model (MCAO); format: in vivo, SD rats; settings: transient ischemia rat; 50 mg/kg intraperitoneal, twice (2 hours and 7 hours after brain infarction); FIG. 4
# Procedure: Rats were anesthetized with 3.0% isoflurane in N2O and O2 (70:30 v/v) mixture via facemask and were maintained in 2% isoflurane. Throughout the experimental period, the body temperature was controlled and kept to 37° C.±0.3° C. using a rectal thermometer and a heating pad until the animals were sufficiently recovered from anesthesia after surgery. Focal cerebral ischemia was achieved by right-sided endovascular MCAO. Briefly, a 3-0 heat-blunted monofilament nylon suture (Ethicon Johnson & Johnson, Brussels, Belgium) were inserted into the lumen of the right external carotid artery stump and advanced 17.5 mm into the internal carotid artery to occlude the ostium of the MCA. The suture was removed after 1.5 hours to allow animals to recover. Operated controls were subjected to the same surgical procedures, except for MCAO. Physiological values were measured 15 minutes before MCAO and at 15 minutes after reperfusion, and mean blood pressure was monitored for 5 minutes using a blood pressure analyzer (MicroMed, Lousville, Ky.), and glucose were monitored using an analyzer (Ciba Corning Diagnostics Corp., Medfield, Mass.). […]
# Rats were anesthetized with 3.5% chloral hydrate (5 ml/kg, intraperitoneal injection) and decapitated. […] The cross-sectional area of infarction between the bregma levels of +4 mm (anterior) and −6 mm (posterior) were determined with analysis software (OPTIMAS5.1 image analysis program, BioScanInc. Edmonds, Wash.). Brain infarct size was measured manually by outlining the margins of infarct areas. The total infarction volume (mm^3) was calculated according to the following equation 5 as disclosed in a document (J Neurosci Methods (1998) 84:9-16; J Cereb Blood Flow Metab (1990) 10:290-293), and compensated for brain edema. Cerebral edema was determined by the percent increase of the ipsilateral/contralateral hemisphere area as shown in the following equation 6. […]
smiles,measurement,setting,value
"COc1cc(C=CC2=CC(=O)[C@H]3C[C@@H]2C3(C)C)cc(O)c1O [Compound 3f, (1S,5R)-4-(3,4-dihydroxy-5-methoxystyryl)-6,6-dimethylbicyclo[3.1.1]hept-3-en-2-one]",OGD-induced intracellular oxidative stress (DCF fluorescence),[1],reduced OGD-induced intracellular oxidative stress
same,ORAC assay Net AUC,[2],99.06 ± 37.80
same,ORAC assay TE25 (trolox equivalents),[2]; net AUC sample / net AUC trolox,2.83 ± 0.22
same,cerebral edema,[3],significantly reduced
same,ischemic injury,[3],significantly reduced
same,neurological deficit,[3],significantly reduced
